Data as given in patent US8492371B2, “Compounds as cannabinoid receptor ligands” (priority 2009, dated 2013).
Like-named read-outs stand apart in the source and are kept apart here.

Columns and labels:
[1] = acute thermal, persistent, inflammatory and neuropathic pain models; cited from earlier work
[2] = neuropathic, incisional, chronic and acute inflammatory pain; cited from earlier work
[3] = rat formalin model of persistent pain; cited from earlier work
[4] = cited from earlier work
[5] = biological target: T1, rat CB2 receptors (Rattus norvegicus, UniProt Q9QZN9); assay: Rat CB2 radioligand binding assay ([3H]CP-55,940 competition)
T1 construct: expressed in transfected cells; host or cells: HEK293
T1 sequence (Q9QZN9 1-360): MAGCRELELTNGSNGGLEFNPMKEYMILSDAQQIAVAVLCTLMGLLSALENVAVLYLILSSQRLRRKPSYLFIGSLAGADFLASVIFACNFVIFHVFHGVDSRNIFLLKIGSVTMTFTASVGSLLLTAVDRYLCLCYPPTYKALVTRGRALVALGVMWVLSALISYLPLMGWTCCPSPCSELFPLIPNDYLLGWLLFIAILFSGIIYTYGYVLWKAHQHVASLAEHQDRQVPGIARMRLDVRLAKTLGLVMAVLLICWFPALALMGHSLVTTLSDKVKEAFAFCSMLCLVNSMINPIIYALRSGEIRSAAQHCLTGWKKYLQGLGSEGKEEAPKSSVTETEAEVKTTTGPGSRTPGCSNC
Procedure, shortened: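 Membranes from HEK293 cells stably expressing rat CB2 (20 μg/well) incubated 45 min at 30 °C with 0.5 nM [3H]CP-55,940 and five competitor concentrations in Tris/EDTA/MgCl2 buffer with 0.5 mg/mL BSA, pH 7.4. Filtration and scintillation counting; nonspecific binding with 10 μM unlabeled CP-55,940.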

[6] = biological target: T2, human CB2 receptors (Homo sapiens, UniProt P34972); assay: Human CB2 radioligand binding assay ([3H]CP-55,940 competition)
T2 construct: expressed in transfected cells; host or cells: HEK293
T2 sequence (P34972 whole entry): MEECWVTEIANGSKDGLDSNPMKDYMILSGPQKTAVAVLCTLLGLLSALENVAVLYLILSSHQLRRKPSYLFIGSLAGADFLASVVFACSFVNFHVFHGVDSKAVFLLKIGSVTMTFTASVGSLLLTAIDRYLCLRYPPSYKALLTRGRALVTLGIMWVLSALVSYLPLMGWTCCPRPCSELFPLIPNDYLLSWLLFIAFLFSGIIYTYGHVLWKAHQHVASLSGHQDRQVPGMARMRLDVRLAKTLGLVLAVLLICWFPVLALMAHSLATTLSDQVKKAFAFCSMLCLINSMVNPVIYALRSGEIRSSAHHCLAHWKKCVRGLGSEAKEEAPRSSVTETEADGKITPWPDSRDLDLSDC
Procedure, shortened: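 Membranes from HEK293 cells stably expressing human CB2 (5 μg/well) incubated 90 min at 30 °C with 0.5 nM [3H]CP-55,940 and five concentrations of displacer (0.01 nM–10 μM) in pH 7.4 Tris/EDTA/MgCl2 buffer with fatty acid free BSA. Bound radioactivity counted after filtration; nonspecific binding defined with 10 μM unlabeled CP-55,940.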

[7] = HEK293 membranes, 0.5 nM [3H]CP-55,940, read-out: human CB2 Ki

In the case of `CN1CCCCC1Cn1cc(C(=O)c2cc([N+](=O)[O-])ccc2I)c2ccccc21` (stereo not shown) [AM-1241], the analgesic efficacy [1] is listed as “exhibits robust analgesic efficacy”.

In the case of `COc1ccc2c(c1)c(CCN1CCOCC1)c(C)n2C(=O)c1cccc(Cl)c1Cl` [GW405833], the “efficacy in pain models” value [2] is listed as “is efficacious”.

In the case of `CCCCCCC(C)(C)c1cc(OC)c([C@@H]2C=C(CO)[C@@H]3C[C@H]2C3(C)C)c(OC)c1` [HU-308], the antinociceptive response [3] is given as “elicits an antinociceptive response”.

In the case of SR144528, the ovariectomy-induced bone loss ([4]; mice, model for post-menopausal osteoporosis) is given as “reverse ovariectomy-induced bone loss” and the osteoclast activity ([4]; mouse, in vivo) is given as “inhibit osteoclast activity”.

Compound `Cn1c(C(C)(C)C)c/c(=N\C(=O)c2cc(C(F)(F)F)ccc2Oc2ccccc2)n1C[C@H]1CCCO1` [Example 133, N-{(3E)-5-tert-butyl-1-methyl-2-[(2R)-tetrahydrofuran-2-ylmethyl]-1,2-dihydro-3H-pyrazol-3-ylidene}-2-phenoxy-5-(trifluoromethyl)benzamide] has a Ki [5] of 39 nM and a Ki [6] of 107 nM.

In the case of `C/C=C/c1ccc(C(F)(F)F)cc1C(=O)/N=c1\cc(C(C)(C)C)n(C)n1C[C@H]1CCCO1` [Example 99, N-{(3E)-5-tert-butyl-1-methyl-2-[(2R)-tetrahydrofuran-2-ylmethyl]-1,2-dihydro-3H-pyrazol-3-ylidene}-2-[(1E)-prop-1-enyl]-5-(trifluoromethyl)benazmide], the Ki [5] is reported as 3.5 nM and the Ki [6] is reported as 12 nM.

For `Cn1c(C(C)(C)C)c/c(=N\C(=O)c2cc(C(F)(F)F)ccc2OCC2CC(=NO)C2)n1C[C@H]1CCCO1` (stereo partly drawn) [Example 119, N-{(3E)-5-tert-butyl-1-methyl-2-[(2R)-tetrahydrofuran-2-ylmethyl]-1,2-dihydro-3H-pyrazol-3-ylidene}-2-{[3-(hydroxyimino)cyclobutyl]methoxy}-5-(trifluoromethyl)benzamide], the Ki [5] was 25 nM and the Ki [6] was 70 nM.

`COCc1ccc(C(F)(F)F)cc1C(=O)/N=c1\cc(C(C)(C)C)n(C)n1C[C@H]1CCCO1` [Example 110, N-{(3E)-5-tert-butyl-1-methyl-2-[(2R)-tetrahydrofuran-2-ylmethyl]-1,2-dihydro-3H-pyrazol-3-ylidene}-2-(methoxymethyl)-5-(trifluoromethyl)benzamide] gave a Ki [5] of 3 nM and a Ki [6] of 12 nM.

`Cn1c(C(C)(C)C)c/c(=N\C(=O)c2cc(C(F)(F)F)ccc2O)n1C[C@H]1CCCO1` [Example 24, N-{(3E)-5-tert-butyl-1-methyl-2-[(2R)-tetrahydrofuran-2-ylmethyl]-1,2-dihydro-3H-pyrazol-3-ylidene}-2-hydroxy-5-(trifluoromethyl)benzamide] gave a Ki [5] of 29 nM and a Ki [6, 7] of 260 nM.

For `Cn1c(C(C)(C)C)c/c(=N\C(=O)c2cc(Br)cc(C(F)(F)F)c2)n1C[C@H]1CCCO1` [Example 104, 3-bromo-N-{(3E)-5-tert-butyl-1-methyl-2-[(2R)-tetrahydrofuran-2-ylmethyl]-1,2-dihydro-3H-pyrazol-3-ylidene}-5-(trifluoromethyl)benzamide], the Ki [5] was 9.3 nM and the Ki [6] was 46 nM.

In the case of `COc1ccc(Cl)cc1C(=O)/N=c1\sc(C2(C)CC2)nn1C[C@H]1CCCO1` [Example 5, 5-chloro-2-methoxy-N-[(2Z)-5-(1-methylcyclopropyl)-3-[(2R)-tetrahydrofuran-2-ylmethyl]-1,3,4-thiadiazol-2(3H)-ylidene]benzamide], the Ki [5] is reported as 0.9 nM and the Ki [6] is reported as 9.1 nM.

In the case of `Cn1c(C(C)(C)C)c/c(=N\C(=O)c2cc(C(F)(F)F)ccc2OCC2(O)CCC2)n1C[C@H]1CCCO1` [Example 44, N-{(3E)-5-tert-butyl-1-methyl-2-[(2R)-tetrahydrofuran-2-ylmethyl]-1,2-dihydro-3H-pyrazol-3-ylidene}-2-[(1-hydroxycyclobutyl)methoxy]-5-(trifluoromethyl)benzamide], the Ki [5] is reported as 18 nM and the Ki [6] is reported as 17 nM.

Compound `CN1CC[C@H](Oc2ccc(C(F)(F)F)cc2C(=O)/N=c2\oc(C(C)(C)C)cn2C[C@H]2CCCO2)C1` [Example 98, N-[(2Z)-5-tert-butyl-3-[(2R)-tetrahydrofuran-2-ylmethyl]-1,3-oxazol-2(3 H)-ylidene]-2-{[(3S)-1-methylpyrrolidin-3-yl]oxy}-5-(trifluoromethyl)benzamide] has a Ki [5] of 88 nM and a Ki [6, 7] of 261 nM.

For `CC1CCC(NC(=O)/N=c2\sc(C(C)(C)C)nn2C[C@H]2CCCO2)CC1` (stereo partly drawn) [Example 67, N-[(2Z)-5-tert-butyl-3-[(2R)-tetrahydrofuran-2-ylmethyl]-1,3,4-thiadiazol-2(3 H)-ylidene]-N′-(4-methylcyclohexyl)urea], the Ki [5] was 10 nM and the Ki [6] was 16 nM.

With `COc1c(F)cc(F)cc1C(=O)/N=c1\cc(C(C)(C)C)n(C)n1C[C@H]1CCCO1` [Example 55, N-{(3E)-5-tert-butyl-1-methyl-2-[(2R)-tetrahydrofuran-2-ylmethyl]-1,2-dihydro-3H-pyrazol-3-ylidene}-3,5-difluoro-2-methoxybenzamide] the Ki ([5]; HEK293 membranes, 0.5 nM [3H]CP-55,940, read-out: rat CB2 Ki) was 143 nM and the Ki [6, 7] was 152 nM.

`CCOCCOc1ccc(C(F)(F)F)cc1C(=O)/N=c1\cc(C(C)(C)C)n(C)n1C[C@H]1CCCO1` [Example 31, N-{(3E)-5-tert-butyl-1-methyl-2-[(2R)-tetrahydrofuran-2-ylmethyl]-1,2-dihydro-3H-pyrazol-3-ylidene}-2-(2-ethoxyethoxy)-5-(trifluoromethyl)benzamide] gave a Ki [5] of 6.2 nM and a Ki [6] of 11 nM.

`Cn1c(C(C)(C)C)c/c(=N\C(=O)c2cc(C(F)(F)F)ccc2/C=N\OC(C)(C)C)n1C[C@H]1CCCO1` [Example 109, 2-[(Z)-(tert-butoxyimino)methyl]-N-{(3E)-5-tert-butyl-1-methyl-2-[(2R)-tetrahydrofuran-2-ylmethyl]-1,2-dihydro-3H-pyrazol-3-ylidene}-5-(trifluoromethyl)benzamide] gave a Ki [5] of 15 nM and a Ki [6] of 23 nM.

Work on `Cn1c(C(C)(C)C)c/c(=N\C(=O)c2cc([N+](=O)[O-])ccc2F)n1C[C@H]1CCCO1` [Example 129, N-{(3E)-5-tert-butyl-1-methyl-2-[(2R)-tetrahydrofuran-2-ylmethyl]-1,2-dihydro-3H-pyrazol-3-ylidene}-2-fluoro-5-nitrobenzamide] yielded a Ki [5] of 2.3 nM and a Ki [6] of 8.6 nM.

With `COC(=O)c1cccc(C(=O)/N=c2\cc(C(C)(C)C)n(C)n2C[C@H]2CCCO2)c1` [Example 115] the Ki [5] was 5.4 nM and the Ki [6] was 25 nM.

Compound `COc1ccc(C(F)(F)F)cc1C(=O)/N=c1\cc(C(C)(C)C)n(C)n1CC1CCOC1` (stereo not shown) [Example 85, N-[(3E)-5-tert-butyl-1-methyl-2-(tetrahydrofuran-3-ylmethyl)-1,2-dihydro-3H-pyrazol-3-ylidene]-2-methoxy-5-(trifluoromethyl)benzamide] has a Ki [5] of 13 nM and a Ki [6] of 87 nM.

Compound `Cn1c(C(C)(C)C)c/c(=N\C(=O)c2cc(C(F)(F)F)ccc2Br)n1C[C@H]1CCCO1` [Example 88, 2-bromo-N-{(3E)-5-tert-butyl-1-methyl-2-[(2R)-tetrahydrofuran-2-ylmethyl]-1,2-dihydro-3H-pyrazol-3-ylidene}-5-(trifluoromethyl)benzamide] has a Ki [5] of 5.4 nM and a Ki [6] of 20 nM.

In the case of `Cn1c(C(C)(C)C)c/c(=N\C(=O)c2cc(C(F)(F)F)ccc2OCC(F)F)n1C[C@H]1CCCO1` [Example 35, N-{(3E)-5-tert-butyl-1-methyl-2-[(2R)-tetrahydrofuran-2-ylmethyl]-1,2-dihydro-3H-pyrazol-3-ylidene}-2-(2,2-difluoroethoxy)-5-(trifluoromethyl)benzamide], the Ki [5] is reported as 5.5 nM and the Ki [6] is reported as 17 nM.

In the case of `COc1ccc(Cl)cc1C(=O)/N=c1\oc(C(C)(C)C)cn1C[C@H]1CCCO1` [Example 13, N-[(2Z)-5-tert-butyl-3-[(2R)-tetrahydrofuran-2-ylmethyl]-1,3-oxazol-2(3H)-ylidene]-5-chloro-2-methoxybenzamide], the Ki [5] is reported as 1.9 nM and the Ki [6] is reported as 4.8 nM.

Work on `CCOc1ccc(C(F)(F)F)cc1C(=O)/N=c1\cc(C(C)(C)C)n(C)n1C[C@H]1CCCO1` [Example 14, N-{(3E)-5-tert-butyl-1-methyl-2-[(2R)-tetrahydrofuran-2-ylmethyl]-1,2-dihydro-3H-pyrazol-3-ylidene}-2-ethoxy-5-(trifluoromethyl)benzamide] yielded a Ki [5] of 24 nM and a Ki [6] of 35 nM.

Compound `Cn1c(C(C)(C)C)c/c(=N\C(=O)c2cc(F)cc(F)c2F)n1C[C@H]1CCCO1` [Example 51, N-{(3E)-5-tert-butyl-1-methyl-2-[(2R)-tetrahydrofuran-2-ylmethyl]-1,2-dihydro-3H-pyrazol-3-ylidene}-2,3,5-trifluorobenzamide] has a Ki [5] of 67 nM and a Ki [6] of 68 nM.

`Cn1c(C(C)(C)C)c/c(=N\C(=O)c2cccc(C(F)(F)F)c2F)n1C[C@H]1CCCO1` [Example 46, N-{(3E)-5-tert-butyl-1-methyl-2-[(2R)-tetrahydrofuran-2-ylmethyl]-1,2-dihydro-3H-pyrazol-3-ylidene}-2-fluoro-3-(trifluoromethyl)benzamide] gave a Ki [5] of 1.3 nM and a Ki [6] of 0.7 nM.
